According to patent publication US20100047233A1, “TREATMENT OF POST-MENOPAUSAL AND POST-HYSTERECTOMY MEDIATED COGNITIVE DISORDERS” (priority 2006, published 2010):
“Also recorded” adds a separate entry of the source. Non-standard residues stand in square brackets, D forms with d. Residues, ends and D or L forms follow the SMILES beside them. dPhe(4-Cl) = N[C@H](Cc1ccc(Cl)cc1)C(=O)O; d2Nal = N[C@H](Cc1ccc2ccccc2c1)C(=O)O; dCit = NC(=O)NCCC[C@@H](N)C(=O)O; d3Pal = N[C@H](Cc1cccnc1)C(=O)O

Legend:
[1] = tested on: Tg2576 mice; assay: Y-maze performance in aged Tg2576 mice; assay type: in vivo; settings: aged (21 month old) Tg2576 female mice, 3 months, vs saline/placebo
Description: (§1) Figure illustrates the mean % alternations expressed as % change from baseline. To measure spontaneous alternation behavior and exploratory activity, a hippocampal-associated task, we used a Y-maze [32 cm (long)×10 cm (wide) with 26-cm walls]. Tg-LHβ and LHRKO animals were tested as previously described (Joseph et al., 2003). Briefly, each animal (randomized and investigator-blinded) was placed in one of three arms of the Y-maze (alternating arms across animals in each group) and each arm entry was recorded for duration of 5 minutes. An alternation was defined as 3 entries in 3 different arms (i.e., 1, 2, 3 or 2, 3, 1 etc). % number of alternations was calculated as (total alternations/total number of entries−2)×100. The maze was cleaned with ethanol between each animal to minimize odor cues. […] In this initial study we used aged animals to 1) circumvent the estrogen issue, since aged mice, like humans show estropause and 2) to examine the effects of LH ablation once the disease is well established.

[2] = tested on: Aβ; assay: Aβ burden (% area stained) in hippocampus of Tg2576 mice; assay type: in vivo; settings: vs saline-treated animals
From the text: Scale bar, 200 μm. […] In this initial study we used aged animals to 1) circumvent the estrogen issue, since aged mice, like humans show estropause and 2) to examine the effects of LH ablation once the disease is well established.

[3] = tested on: serum LH; assay: Serum LH after leuprolide acetate treatment in mice; assay type: in vivo; settings: for serum LH: Tg2576 mice, vs saline
From the text: (§2) Inset: LHβ mRNA expression in mouse pituitary gland.

[4] = tested on: LHβ mRNA; assay: LHβ mRNA expression in mouse pituitary gland; assay type: in vivo; settings: saline versus 6 and 8 week leuprolide acetate treatment
From the text: as §2

[5] = tested on: C57/B6 female mice; assay: Y-maze performance in ovariectomized mice; assay type: in vivo; settings: OVX mice; for Y-maze performance: leuprolide acetate 7.5 mg/kg for 3 months vs saline, improvement specific to placebo replaced group
Description: as §1, with “To” for “Figure illustrates the mean % alternations expressed as % change from baseline. To”, “addition we added a SHAM ovariectomized group that received saline and a placebo pallet (n=10). During the last two weeks of the” for “this initial”, “all” for “we used aged”, “have been tested for Y-maze” for “to 1) circumvent the estrogen issue, since aged mice, like humans show estropause”, “Morris Water Maze performance.” for “2) to examine the effects of LH ablation once the disease is well established.”

[6] = tested on: C57/B6 female mice; assay: Morris Water Maze in ovariectomized mice (leuprolide acetate, estrogen); assay type: in vivo; settings: for OVX-associated cognitive decline, length of time taken to locate the invisible platform across days: OVX C57/B6 mice, Morris Water Maze, 3 months treatment
From the text: (Significance indicated by: *P+S vs E+S; #=P+S vs P+L; $=P+S vs SHAM; %=P+S vs E+L; at p<0.05).
For this pilot 2 month old C57/B6 female mice from Jackson Labs, were ovariectomized (n=40) them and either replaced them with 90-day time-release estrogen (n=20) or placebo pellets (Innovative research of America, F1) (n=18). […] In addition we added a SHAM ovariectomized group that received saline and a placebo pallet (n=10). During the last two weeks of the study all animals have been tested for Y-maze and Morris Water Maze performance.
As mentioned before, all mice also underwent MWM testing, a measurement of hippocampal function based on the capacity of the animal to find a hidden platform under water by remembering and using spatial cues in the environment.
(§3) Additionally, to further determine the memory function and training success in the animals we measured the capacity of the animals to retain the information learned using a probe trial. In this regard, at the end of the last day of training we removed the platform and let the animals swim for 1 minute.

[7] = tested on: Tg2576 mice; settings: APP transgenic mice, earlier study; cited from earlier work
[8] = tested on: Aβ; settings: APP transgenic mice, earlier study; cited from earlier work
[9] = tested on: AD patients; settings: high doses, phase II clinical trial; cited from earlier work
[10] = tested on: C57/B6 female mice; assay: Morris Water Maze in ovariectomized mice (cetrorelix); assay type: in vivo
From the text: FIG. 13 are graphs illustrating Latency to enter NE quadrant and % Time spent in NE quadrant during the probe trial for animals treated with cetrorelix or saline and sham operated animals (SHAM).
FIG. 14 are plots illustrating the distance swam in NE quadrant during the trial for animals treated with cetrorelix or saline and sham operated animals.
We present preliminary data gathered from a pilot study and that focuses on the effects of cetrorelix on cognition in ovariectomized animals with or without estrogen replacement immediately after surgery. For this pilot 2 month old C57/B6 female mice were ovariectomized, as described above, and then treated with either 0.9% saline and the other half with cetrorelix. In addition we added a SHAM ovariectomized group that received saline and a placebo pallet (n=10). During the last two weeks of the study all animals have been tested for Morris Water Maze performance.
as §3

[11] = platform removed, 1 minute swim, regardless of replacement regiment

## CCNC(=O)[C@@H]1CCCN1C(=O)[C@H](CCCNC(=N)N)NC(=O)[C@H](CC(C)C)NC(=O)[C@@H](CC(C)C)NC(=O)[C@H](Cc1ccc(O)cc1)NC(=O)[C@H](CO)NC(=O)[C@H](Cc1c[nH]c2ccccc12)NC(=O)[C@H](Cc1c[nH]cn1)NC(=O)[C@@H]1CCC(=O)N1 [leuprolide acetate]
[1]
  Y-maze cognitive performance (% alternations, % change from baseline): significantly attenuates cognitive decline
[2]
  Aβ burden / plaque load (% area stained in the entire hippocampus): significantly lower; also recorded: decreases Aβ plaque load
[3]
  serum LH: significant decline in serum LH
[3]; listed as Leuprolide acetate
  serum LH: significantly reduces serum LH
[3]; up to 8 weeks following treatment
  time course of serum LH: classical LH modulation pattern by GnRH agonists
[4]
  LHβ mRNA expression in the pituitary: clear decrease in the expression of LHβ mRNA
[5]
  Y-maze performance: significantly improved Y-maze performance
[5]; listed as leuprolide
  Y-maze performance: effective at improving OVX-dependent cognitive declines
[6]
  OVX-associated cognitive decline, length of time taken to locate the invisible platform across days: as effective as estrogen in rescuing OVX-associated cognition decline
[6]; independent of replacement regiment, vs saline
  rate of learning in Morris Water Maze: learned at a faster rate
[6]; [11]
  distance swam in NE quadrant, probe trial: swam longer distances
  latency to enter NE quadrant, probe trial: entered that quadrant earlier
  latency to enter platform location, probe trial: crossed the invisible platform region more earlier
  number of platform crossings, probe trial: crossed it more times
[7]
  Y-maze performance: improves Y-maze performance
[8]
  amyloid-β load in the hippocampus: decreases amyloid-β load
[9]
  cognitive impairment and activities of daily living: stabilization in cognitive impairment and activities of daily living

## estrogen
[5]; saline-treated, 90-day time-release estrogen vs placebo pellets, p=0.07
  Y-maze performance, estrogen-replaced vs placebo replaced: strong trend
[6]
  OVX-associated cognitive decline, length of time taken to locate the invisible platform across days: rescued

## CC(=O)N[C@H](Cc1ccc2ccccc2c1)C(=O)N[C@H](Cc1ccc(Cl)cc1)C(=O)N[C@H](Cc1cccnc1)C(=O)N[C@@H](CO)C(=O)N[C@@H](Cc1ccc(O)cc1)C(=O)N[C@H](CCCNC(N)=O)C(=O)N[C@@H](CC(C)C)C(=O)N[C@@H](CCCNC(=N)N)C(=O)N1CCC[C@H]1C(=O)N[C@H](C)C(N)=O [cetrorelix] (Ac-[d2Nal][dPhe(4-Cl)][d3Pal]SY[dCit]LRP[dA]-NH2)
[10]; OVX placebo-implanted mice, cetrorelix vs saline
  OVX-dependent cognitive declines, Morris Water Maze: effective at improving OVX-dependent cognitive declines
[10]; independent of replacement regiment, cetrorelix vs saline
  rate of learning in Morris Water Maze: learned at a faster rate
[10]; platform removed, 1 minute swim
  distance swam in NE quadrant, probe trial: swam longer distances
